Activity calls are given as the source filed them. The rule behind the calls is not given here.
target: Prostaglandin E2 receptor EP2 subtype (Homo sapiens) (UniProt P43116); experiment: compounds shifting PGE2 potency at EP2 – cell-based, human EP2, PGE2 EC50 shift, dose response (AID 1421); settings: EP2-expressing cells, PGE2 EC50 shift by compound
Sequence (P43116 whole entry, looked up): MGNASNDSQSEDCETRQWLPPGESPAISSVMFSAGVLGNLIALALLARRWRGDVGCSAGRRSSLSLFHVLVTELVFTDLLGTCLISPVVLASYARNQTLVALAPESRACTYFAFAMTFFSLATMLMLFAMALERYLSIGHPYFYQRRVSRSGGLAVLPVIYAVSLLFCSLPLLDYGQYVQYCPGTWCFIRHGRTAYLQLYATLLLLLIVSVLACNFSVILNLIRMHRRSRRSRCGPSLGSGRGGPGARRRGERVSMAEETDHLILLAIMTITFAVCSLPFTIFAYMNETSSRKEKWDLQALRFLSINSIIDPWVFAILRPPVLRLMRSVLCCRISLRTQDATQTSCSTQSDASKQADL

SMILES	outcome
O=C(N/N=C/c1cccc(F)c1)NC1CCCCC1	active
CCOC(=O)c1c(NC(=O)c2ccc(-n3cnnn3)cc2)sc2c1CCCC2	active
CCCc1cc(-c2n[nH]c(=S)n2C(C)c2ccccc2)cs1 (centres undefined)	active
CCCCCc1ccc(-c2ccc(=O)[nH]n2)cc1	active
CC(C)C1COC(c2cccn2Cc2ccccc2Cl)=N1 (centres undefined)	active
O=c1[nH]c2ccc(Cl)cc2c(-c2ccccc2)c1N1CCOCC1	active
CCOC(=O)c1c(NC(=O)CN2CCCCC2)sc(C)c1C	active
CN1CCCN(C(=O)Cc2c(Cl)cccc2Cl)c2nc3ccccc3nc21	active
FC(F)(F)c1cc(-c2ccccc2)nc2nc(N3CCOCC3)sc12	active

same assay, conditions: EP2-expressing cells, PGE2 EC50 shift by compound; measured here: PGE2 EC50 at 6.7 uM compound

SMILES	PGE2 EC50 with compound [nM]
Cc1cc(SC(C)C(=O)O)nc2ccccc12 (centres undefined)	1.18
Cc1ccccc1NC(=O)/C(=C/c1ccccc1)c1ccccc1	1.23
COc1ccc2c(COC(=O)c3n[nH]c4ccccc34)cc(=O)oc2c1	1.31
C[C@]12CCC3C(CC[C@H]4C[C@@H](Cl)CC[C@]34C)C1CCC2=O (some centres undefined)	0.99
O=C(N/N=C/c1cccc(F)c1)NC1CCCCC1	1.1
Cc1ccc(-n2c(=S)[nH]c3c(oc4ccccc43)c2=O)cc1	2.77
COc1ccccc1C(CC(=O)c1ccccc1)CC(=O)c1ccccc1	2.56
COc1ccc(OC)c(C(=O)c2coc3ccc(OCC(=O)O)cc23)c1	0.98
CCCC(=O)C1=C(O)C(C(=O)OC)C(C)(C)CC1=Nc1cccc2ccccc12 (centres undefined)	1.53
CCCCCCn1c(COc2ccccc2F)nnc1SCC(=O)N1c2ccccc2NC(=O)C1(C)C	0.93
Cc1ccc(S(=O)(=O)c2c(C)cc(C)nc2N2CCCCC2)cc1	1.31
CCOC(=O)Cc1csc(NC(NC(=O)CC)(C(F)(F)F)C(F)(F)F)n1	1.03
O=c1c2ccccc2nc(/C=C/c2ccccc2)n1CCc1ccccc1	0.92
CCOC(=O)c1c(NC(=O)c2ccc(-n3cnnn3)cc2)sc2c1CCCC2	0.85
CC(=O)N(c1cccc(Br)c1)C1C=CS(=O)(=O)C1 (centres undefined)	0.98
CCN(CC)c1ccc(/C=C2\C(=O)c3ccc(C(=O)O)cc3C2=O)cc1	1.04
CCOC(=O)CC(=O)CSc1nc(-c2ccc3c(c2)OCO3)cc(C(F)(F)F)c1C#N	1.24
CCOC(=O)c1sc(NC(=O)C(CC)OC(=O)C(CC(C)C)NC(=O)c2ccccc2)nc1C (centres undefined)	1.22
Cc1ccccc1Cn1c2ccccc2c2cn[nH]c(=O)c21	1.15
CCn1c2ccc(OC)cc2c2nc3ccccc3nc21	2.47
Cc1ccc2nc(SCC(=O)NCc3ccco3)c(C)cc2c1	0.76
CCOC(=O)c1[nH]c2ccc(OC)cc2c1NS(=O)(=O)c1ccc(Cl)s1	2.87
O=C(O)COc1ccc2occ(C(=O)c3ccccc3)c2c1	0.86
CCCc1cc(-c2n[nH]c(=S)n2C(C)c2ccccc2)cs1 (centres undefined)	1.2
Cc1ccc2oc(=O)n(Cc3ccccc3OC(C)C)c2c1	0.64

SMILES	PGE2 EC50 with compound [nM]
Cc1onc(-c2ccccc2Cl)c1-c1nc(-c2ccncc2)no1	0.83
c1ccc2c(-c3nc(C4CCCCC4)no3)cc(-c3ccncc3)nc2c1	0.34
CCCCCc1ccc(-c2ccc(=O)[nH]n2)cc1	1.44
Fc1ccc(-c2cc(-c3ccccc3)nc(-n3cccn3)n2)cc1	1.63
COc1ccc(-c2cc(C(F)(F)F)n3nc(C(=O)N(C)Cc4ccccc4)cc3n2)cc1OC	1.03
CCCCn1c(=O)c(C(=O)NCc2ccco2)c(O)c2ccccc21	2.62
Cc1ccc(C(C)C)c(OCCn2c(=O)oc3ccccc32)c1	2.6
COC(=O)C1=C(C)N(C)C(C)=C(C(=O)OC)C1c1cccc(Br)c1	0.97
O=C(CSc1nc2cc(Cl)ccc2s1)N1CCCc2ccccc21	1.09
COc1cc2ccccc2cc1C(=O)NC(=S)Nc1cc(C(=O)O)ccc1C	3.08
COc1ccc(-c2nn3c(-c4ccccc4)nnc3s2)cc1	0.66
COC(=O)c1c(NC(=O)Cc2cccs2)sc2c1CCC(C)C2 (centres undefined)	0.94
Cc1ccccc1CSCC(=O)Nc1ccccc1-c1ccccc1	1.02
CCCCCn1c(CN2CCN(c3cc(Cl)ccc3C)CC2)nc2c1c(=O)[nH]c(=O)n2C	1.25
Cc1ccc(S(=O)(=O)Nc2ccc(Cl)cc2C(=O)c2ccc(F)cc2)cc1	0.97
CC12CCCC(O)(C1)C1CC(C)(C)C1CC2 (centres undefined)	1.55
CC1CC(C)CN(CC(=O)NC(c2ccccc2)c2ccccc2)C1 (centres undefined)	2.64
Cc1cccc(C(=O)Nc2cccc(OCC(=O)O)c2)c1	6.72
Cc1ccc(CSc2nc3ccccc3cc2C=O)cc1	0.73
COC[C@H]1OC(=O)c2coc3c2[C@@]1(C)C1=C(C3=O)C2CCC(=O)[C@@]2(C)C[C@H]1OC(C)=O (some centres undefined)	0.84
CN(CC(=O)Nc1ccccc1-c1ccccc1)C1CCCCC1	0.51
CC(C)C1COC(c2cccn2Cc2ccccc2Cl)=N1 (centres undefined)	0.95
O=C(Nc1cccc(Cl)c1N1CCCCC1)c1ccc2c(c1)OCCO2	0.64
O=C(COc1cccc2ccccc12)N1c2ccccc2CCc2ccccc21	1.19
[N-]=[N+]=Nc1ccc(C(=O)CSC[C@H](NC(=O)CC[C@H](N)C(=O)O)C(=O)NCC(=O)O)cc1	0.8

SMILES	PGE2 EC50 with compound [nM]
CSc1nc2ccccc2c(=O)n1Cc1ccc(F)cc1	0.87
C=CCNC(=S)NNc1nc(Nc2ccccc2)nc(N2CCCCC2)n1	1.42
CCOc1cccc(CNc2ccc(O)cc2)c1OCc1ccc(Cl)cc1	1.41
Cc1cccc(C)c1NC(=O)CSc1nc(COc2ccccc2)nc2ccccc12	0.82
CCOC(=O)CSc1ncnc2c1sc1nc(N3CCOCC3)c3c(c12)CCCC3	0.32
COC(=O)CSc1nc2c(c(C3CC=CCC3)c1C#N)CCC2 (centres undefined)	1.26
Cc1ccccc1OCc1nc2ccccc2c(=O)n1/N=C/c1ccco1	1.02
Cc1cccc(OCCCC(=O)N2CCCc3ccccc32)c1C	0.71
COC(=O)C(C)Sc1ncnc2c1nnn2-c1ccc(F)cc1 (centres undefined)	1.11
O=c1[nH]c2ccc(Cl)cc2c(-c2ccccc2)c1N1CCOCC1	1.13
CCOC(=O)c1c(NC(=O)CN2CCCCC2)sc(C)c1C	0.89
O=c1c2ccccc2nc(N2CCCC2)n1-c1ccc(Cl)cc1	2.64
CC(=O)OC[C@@]1(O)C[C@@]23CCC4c5ccoc5CC[C@]4(C)C2CC[C@@H]1C3 (some centres undefined)	0.85
CC1CCCCN1C(=O)/C(=C\c1ccccc1)c1ccccc1 (centres undefined)	2.61
c1cncc(-c2nc(N3CCOCC3)c3c4c(sc3n2)CCC4)c1	1.15
CCn1c(=NC(=O)c2ccc(S(=O)(=O)N(C)C)cc2)sc2cccc(OC)c21	1.17
COc1ccc(C(=O)Nc2ccccc2N2CCCCC2)cc1[N+](=O)[O-]	1.01
CN1CCCN(C(=O)Cc2c(Cl)cccc2Cl)c2nc3ccccc3nc21	0.9
C[C@H](CCC(=O)O)[C@@H]1CC[C@@H]2[C@H]3CC[C@@H]4C[C@H](O)CC[C@@]4(C)[C@@H]3CC[C@]21C	1.38
FC(F)(F)c1cc(-c2ccccc2)nc2nc(N3CCOCC3)sc12	1.68
CN(c1ccccc1)C1CCCCC1NS(=O)(=O)c1ccc(Cl)cc1 (centres undefined)	2.43
Cc1ccc(-c2cc3nn(-c4ccccc4)c(N)c3c(=O)o2)cc1	1.87
CCC(C)(C(=O)NC1CCCCC1)N(C(=O)C1CCC(=O)N1)c1ccccc1 (centres undefined)	1.17
COc1ccccc1Nc1cc(C)nc2c(C)ccc([N+](=O)[O-])c12	1.12
CC1C(c2ccccc2)N(C)C(c2ccccc2)C(C)C1(O)C#Cc1ccccc1 (centres undefined)	0.32

SMILES	PGE2 EC50 with compound [nM]
O=c1n(Cc2ccccc2F)c2ccccc2n1Cc1ccccc1F	1.01
CC(C)(Sc1ccc(CCN(CCCCC2CCCCC2)C(=O)NC2CCCCC2)cc1)C(=O)O	1.23
COc1ccc(C(=O)COC(=O)C(CCSC)NS(=O)(=O)c2ccc(Cl)cc2)cc1 (centres undefined)	2.2
CCOC(=O)C1CCCN(c2c(C(=O)c3ccccc3)cnc3ccc(OC)cc23)C1 (centres undefined)	1.15
Cc1cc2c3c(c1)C1(SCC(=O)N1c1ccc(F)cc1)C(=O)N3C(C)(C)CC2C (centres undefined)	2.59
COC(=O)c1nc(NC(=O)C(C)(C)C)n[nH]1	2.41
O=C(Nc1ccccc1)c1nn(-c2cccc(C(F)(F)F)c2)ccc1=O	2.72
CCOc1ccc(Cl)cc1S(=O)(=O)n1cnc2cc(C)c(C)cc21	1.16
CCOC(=O)c1c(N)sc(-c2ccccc2)c1C	2.56
Cc1cccc(C)c1NC(=O)CSc1nnc(Cn2nnc(-c3ccccc3)n2)n1-c1ccccc1	0.65
CCCn1c(C)nc2c(c1=O)c1nc3ccccc3nc1n2CCC1=CCCCC1	1.42
CCc1ccc2[nH]c(=O)c(C(c3nnnn3CC3CCCO3)N3CCCc4ccccc43)cc2c1 (centres undefined)	0.99
CN1C(=O)/C(=C/c2ccccc2OCc2cccc(F)c2)N(C)C1=S	0.81
O=c1c2c(n3cnnc3n1C1CCCCC1)-c1ccccc1CC21CCCCC1	0.33
Cc1cc2ccccc2nc1SCC(=O)NC1CCCC1	1.4
O=c1cc(N2CCCCC2)c(-c2ccccc2)nn1Cc1c(Cl)cccc1Cl	0.71
CCOC(=O)c1c(C)nc2ccccc2c1-c1ccccc1	1.31
O=C(CSc1nc2ccccc2o1)Nc1cc(C(F)(F)F)ccc1N1CCOCC1	0.77
O=C(c1ccco1)N1N=C(c2ccc(Br)cc2)CC1(O)C(F)(F)F (centres undefined)	0.84
Cc1ccc(S(=O)(=O)N(CC(=O)N=Nc2c(O)[nH]c3ccccc23)c2ccc(C)c(C)c2)cc1	2.05
Cc1ccc(N=Cc2cc(Cc3ccccc3Cl)cc([N+](=O)[O-])c2O)c(O)c1	0.6
C#CCn1c(S(=O)(=O)Cc2ccccc2Cl)nc(-c2ccccc2)c1-c1ccccc1	2.66
CCc1ccccc1NC(=O)/C(=C/c1ccco1)c1ccccc1	1.58
Fc1ccc(C(c2ccc(F)cc2)N2CCN(C/C=C/c3ccccc3)CC2)cc1	1.19
CCOC(=O)CSc1nc(-c2ccccc2)nc2ccccc12	0.87

— PubChem BioAssay AID1421 (Emory University Molecular Libraries Screening Center, 2008)
